From US20250145606A1 (Arcus Biosciences, Inc., priority 2023, published 2025)

Key:
FLT3 = FLT3 (Homo sapiens (Human), UniProt P36888); assay: Inhibition of FLT3 kinase activity (HTRF KinEASE-TK); type: biochemical; details: biochemical, HTRF KinEASE-TK
Description: Inhibition of c-Kit, PDGFRα, PDGFRβ, CSFIR and FLT3 Kinase Activity
Compounds were evaluated to determine the potency with which they inhibit the kinase activity of the following panel of tyrosine kinases: c-Kit (SignalChem, Product #: K06-11BG), PDGFRα (SignalChem, Product #: P12-18G), PDGFRβ (SignalChem, Product #: P13-11G), CSFIR (SignalChem, Product #: C74-11G) and FLT3 (Invitrogen, Product #: PR4666C). Activity was determined as a function of phosphorylated biotinylated TK peptide generated by the transfer of phosphate from ATP as measured by the use of the HTRF KinEASE-TK assay kit (Cisbio, Product #: 62TKOPEJ). Levels of phosphorylated biotinylated TK peptide (Part 61TKOBLC of KinEASE assay kit) are quantified by its capture by phosphor-TK-Antibody-Cryptate (Part of KinEASE assay kit) and XL665-labeled Streptavidin (Part 610SAXLG of KinEASE assay kit) followed by measurement of Time-Resolved Fluorescence Resonance Energy Transfer (TR-FRET) signal. On the day of the assay, compounds were solubilized in DMSO and dispensed into a 384-well white Opti-plate (PerkinElmer, catalog #6007290) to generate a 22 point 1:2 titration. Enzyme solution was prepared for each of the tyrosine kinases in 50 mM HEPES, pH 7.4, 5 mM MgCl2 for c-Kit or 10 mM MgCl2 for FLT3, CSFIR, PDGFRa and PDGFRβ, 2 mM MnCl2, 0.01% Brij-35 and 0.01% BSA. Working enzyme concentrations were prepared for c-Kit at 2 nM (2×), PDGFRa and PDGFRß at 10 nM (2×), CSFIR at 2 nM (2×) and FLT3 at 0.4 nM (2×). Five microliters of enzyme dilution of each tyrosine kinase were added to their respective 384-well white Opti-plate pre-dispensed with compound and allowed to incubate for 1 h at rt. Utilizing the same enzyme buffer recipe, 2x substrate mixes were prepared for each enzyme as follows: For c-Kit, 1.6 μM (2×) TK substrate and 16 μM (2×) ATP (Promega, catalog #V915). For PDGFRα, 3.2 μM TK substrate and 1 μM ATP. For PDGFRβ, 3.2 μM TK substrate and 40 μM ATP. For CSFIR, […] TK substrate and 20 μM ATP. For FLT3, 3.2 μM TK substrate and 100 μM ATP. Reactions were initiated by addition of 5 μL of the respective 2x substrate mix to each well of the plates containing the respective tyrosine kinase enzymes and were allowed to proceed for 120 minutes at rt, except for FLT3, the reaction time is 45 min. Following the reaction, 10 μL of detection mix consisting of 0.2 μM (2×) of Streptavidin-XL665 and 2 μM (2×) of TK-Antibody-Cryptate prepared in detection buffer (Part 62SDBRDF of KinEASE assay kit) was added and then allowed to incubate for 60 min. The TR-FRET signal was quantified by measuring the ratio of emission at 665 nm to 620 nm after excitation at 320 nm by reading on a PerkinElmer Envision multimode reader. Compound potencies (IC50 values) were determined using a standard 4-parameter non-linear regression fit.

c-Kit = c-Kit (Homo sapiens (Human), UniProt P10721); assay: Inhibition of c-Kit kinase activity (HTRF KinEASE-TK); type: biochemical; details: biochemical, HTRF KinEASE-TK
Sequence of c-Kit (P10721 26-976): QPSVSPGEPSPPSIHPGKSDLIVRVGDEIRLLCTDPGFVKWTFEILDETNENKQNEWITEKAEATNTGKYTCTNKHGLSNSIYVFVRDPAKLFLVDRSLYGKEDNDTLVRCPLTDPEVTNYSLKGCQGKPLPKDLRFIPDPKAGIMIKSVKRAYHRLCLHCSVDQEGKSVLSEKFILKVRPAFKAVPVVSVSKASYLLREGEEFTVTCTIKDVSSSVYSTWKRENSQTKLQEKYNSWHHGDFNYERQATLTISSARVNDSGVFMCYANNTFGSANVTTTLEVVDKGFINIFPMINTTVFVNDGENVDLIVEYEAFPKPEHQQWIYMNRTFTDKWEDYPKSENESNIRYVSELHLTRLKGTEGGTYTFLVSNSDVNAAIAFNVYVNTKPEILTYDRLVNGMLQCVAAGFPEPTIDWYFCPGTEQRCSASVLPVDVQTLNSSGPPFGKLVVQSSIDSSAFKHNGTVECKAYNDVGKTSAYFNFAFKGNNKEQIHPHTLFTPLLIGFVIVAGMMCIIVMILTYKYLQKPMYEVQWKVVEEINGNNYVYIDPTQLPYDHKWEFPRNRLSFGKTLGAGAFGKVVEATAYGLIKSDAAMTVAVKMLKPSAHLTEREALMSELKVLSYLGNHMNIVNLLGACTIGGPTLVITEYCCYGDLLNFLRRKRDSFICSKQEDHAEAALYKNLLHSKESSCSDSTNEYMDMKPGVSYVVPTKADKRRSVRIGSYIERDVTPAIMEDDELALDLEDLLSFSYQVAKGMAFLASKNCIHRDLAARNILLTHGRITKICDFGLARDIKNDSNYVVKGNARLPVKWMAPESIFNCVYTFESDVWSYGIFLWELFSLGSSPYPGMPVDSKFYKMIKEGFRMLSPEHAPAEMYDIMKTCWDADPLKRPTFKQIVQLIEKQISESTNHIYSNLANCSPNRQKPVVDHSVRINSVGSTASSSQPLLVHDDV
In short: (§1)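 Human kinases were preincubated 1 h at rt with a 22-point 1:2 compound titration, then run 120 min at rt with biotinylated TK peptide and ATP (2× mix: c-Kit 16 μM, PDGFRα 1 μM, PDGFRβ 40 μM, CSF1R 20 μM). Phosphopeptide was read by HTRF TR-FRET (665/620 nm), and IC50s came from 4-parameter fits.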

PDGFRα = PDGFRα (Homo sapiens (Human), UniProt P16234); assay: Inhibition of PDGFRα kinase activity (HTRF KinEASE-TK); details: biochemical, HTRF KinEASE-TK
Sequence of PDGFRα (P16234 24-1089): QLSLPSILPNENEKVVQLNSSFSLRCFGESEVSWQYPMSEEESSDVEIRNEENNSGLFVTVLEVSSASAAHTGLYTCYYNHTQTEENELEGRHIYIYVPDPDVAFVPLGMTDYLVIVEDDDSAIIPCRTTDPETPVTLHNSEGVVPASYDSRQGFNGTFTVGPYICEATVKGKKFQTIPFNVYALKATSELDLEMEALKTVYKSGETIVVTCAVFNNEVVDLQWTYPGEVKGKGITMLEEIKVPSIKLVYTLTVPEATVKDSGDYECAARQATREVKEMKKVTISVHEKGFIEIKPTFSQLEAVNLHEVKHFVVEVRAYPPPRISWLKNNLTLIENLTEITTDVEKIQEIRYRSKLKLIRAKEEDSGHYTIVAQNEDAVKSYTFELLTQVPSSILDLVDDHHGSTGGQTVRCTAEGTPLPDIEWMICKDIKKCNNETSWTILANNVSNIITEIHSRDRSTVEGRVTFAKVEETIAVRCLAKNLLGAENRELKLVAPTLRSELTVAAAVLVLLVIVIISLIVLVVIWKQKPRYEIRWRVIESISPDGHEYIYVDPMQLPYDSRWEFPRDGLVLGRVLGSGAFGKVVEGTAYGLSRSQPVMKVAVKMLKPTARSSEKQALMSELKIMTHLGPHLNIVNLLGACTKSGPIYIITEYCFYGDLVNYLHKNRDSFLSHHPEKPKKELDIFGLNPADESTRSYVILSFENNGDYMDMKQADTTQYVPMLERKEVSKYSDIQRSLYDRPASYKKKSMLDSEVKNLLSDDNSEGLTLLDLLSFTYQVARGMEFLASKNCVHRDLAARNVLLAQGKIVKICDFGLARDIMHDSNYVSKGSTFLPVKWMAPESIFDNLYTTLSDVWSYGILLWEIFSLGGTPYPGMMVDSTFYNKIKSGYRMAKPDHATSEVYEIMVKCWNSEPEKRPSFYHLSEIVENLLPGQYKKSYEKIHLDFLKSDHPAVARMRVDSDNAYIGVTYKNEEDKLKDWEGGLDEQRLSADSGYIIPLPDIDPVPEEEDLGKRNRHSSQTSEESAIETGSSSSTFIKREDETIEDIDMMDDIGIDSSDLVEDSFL
In short: as §1

PDGFRβ = PDGFRβ (Homo sapiens (Human), UniProt P09619); assay: Inhibition of PDGFRβ kinase activity (HTRF KinEASE-TK); details: biochemical, HTRF KinEASE-TK
Sequence of PDGFRβ (P09619 33-1106): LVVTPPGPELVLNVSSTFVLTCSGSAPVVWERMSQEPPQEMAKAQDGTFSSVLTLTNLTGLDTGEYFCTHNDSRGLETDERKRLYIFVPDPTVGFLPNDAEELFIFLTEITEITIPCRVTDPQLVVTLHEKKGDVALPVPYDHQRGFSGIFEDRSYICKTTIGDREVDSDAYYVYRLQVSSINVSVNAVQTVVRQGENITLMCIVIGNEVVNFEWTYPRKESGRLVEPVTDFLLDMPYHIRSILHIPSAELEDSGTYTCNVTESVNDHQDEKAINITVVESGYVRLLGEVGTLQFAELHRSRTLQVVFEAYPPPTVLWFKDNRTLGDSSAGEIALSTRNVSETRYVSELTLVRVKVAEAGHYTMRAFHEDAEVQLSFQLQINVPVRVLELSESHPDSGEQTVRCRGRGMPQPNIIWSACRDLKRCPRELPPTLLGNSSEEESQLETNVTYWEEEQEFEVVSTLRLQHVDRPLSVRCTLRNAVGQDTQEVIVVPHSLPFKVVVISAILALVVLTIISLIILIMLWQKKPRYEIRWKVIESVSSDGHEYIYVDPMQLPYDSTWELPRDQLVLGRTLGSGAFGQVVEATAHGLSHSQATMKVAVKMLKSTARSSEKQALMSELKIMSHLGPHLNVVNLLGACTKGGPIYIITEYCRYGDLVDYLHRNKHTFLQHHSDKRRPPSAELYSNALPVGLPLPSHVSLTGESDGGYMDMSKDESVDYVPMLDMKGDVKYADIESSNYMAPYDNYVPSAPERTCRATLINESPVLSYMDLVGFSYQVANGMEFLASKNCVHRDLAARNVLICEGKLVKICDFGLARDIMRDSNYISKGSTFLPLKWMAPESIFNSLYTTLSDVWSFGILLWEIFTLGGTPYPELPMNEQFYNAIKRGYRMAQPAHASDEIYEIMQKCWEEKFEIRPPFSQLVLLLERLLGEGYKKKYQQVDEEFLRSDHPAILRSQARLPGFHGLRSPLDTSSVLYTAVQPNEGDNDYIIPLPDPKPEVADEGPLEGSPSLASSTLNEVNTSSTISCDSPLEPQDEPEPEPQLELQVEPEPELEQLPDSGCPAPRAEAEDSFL
In short: as §1

CSF1R = CSF1R (Homo sapiens (Human), UniProt P07333); assay: Inhibition of CSF1R kinase activity (HTRF KinEASE-TK); details: biochemical, HTRF KinEASE-TK
Sequence of CSF1R (P07333 20-972): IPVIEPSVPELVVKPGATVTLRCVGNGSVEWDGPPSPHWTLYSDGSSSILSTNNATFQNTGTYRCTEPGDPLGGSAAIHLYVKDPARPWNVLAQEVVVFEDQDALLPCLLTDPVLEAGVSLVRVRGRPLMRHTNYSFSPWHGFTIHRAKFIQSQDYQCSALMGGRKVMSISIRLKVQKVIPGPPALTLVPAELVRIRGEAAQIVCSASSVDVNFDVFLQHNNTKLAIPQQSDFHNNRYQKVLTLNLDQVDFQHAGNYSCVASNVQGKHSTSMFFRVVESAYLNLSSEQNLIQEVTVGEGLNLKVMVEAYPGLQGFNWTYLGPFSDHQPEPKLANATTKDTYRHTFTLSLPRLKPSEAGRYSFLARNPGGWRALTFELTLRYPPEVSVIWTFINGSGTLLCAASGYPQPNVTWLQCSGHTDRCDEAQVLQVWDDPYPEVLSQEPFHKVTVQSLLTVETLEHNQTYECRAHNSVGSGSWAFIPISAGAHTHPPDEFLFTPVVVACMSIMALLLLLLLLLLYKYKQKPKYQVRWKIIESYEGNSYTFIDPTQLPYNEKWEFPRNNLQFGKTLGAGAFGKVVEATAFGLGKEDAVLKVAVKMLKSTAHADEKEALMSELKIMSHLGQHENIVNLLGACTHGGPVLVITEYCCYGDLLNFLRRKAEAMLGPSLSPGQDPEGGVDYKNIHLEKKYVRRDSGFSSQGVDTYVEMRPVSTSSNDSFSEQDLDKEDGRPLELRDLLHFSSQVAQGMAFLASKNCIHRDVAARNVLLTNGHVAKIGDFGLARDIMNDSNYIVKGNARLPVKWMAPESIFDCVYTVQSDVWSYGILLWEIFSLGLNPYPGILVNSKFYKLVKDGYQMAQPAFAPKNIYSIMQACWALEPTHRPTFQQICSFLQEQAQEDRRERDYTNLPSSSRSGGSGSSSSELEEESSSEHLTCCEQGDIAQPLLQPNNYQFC
In short: as §1

[1] = test system: Phospho-KIT (Y703) in M07e cells; assay: Phospho-KIT (Y703) cellular assay in M07e cells; type: cell-based; details: M-07e; Phospho-KIT (Y703), M07e cells; read-out: M07e Cell IC50
In short: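 Serum-starved M07e cells preincubated 50 min at 37° C with 11-point half-log compound titration, then stimulated 10 min with SCF at 90.9 ng/mL final. Fixed, permeabilized cells stained for phospho-KIT Y703 and read by flow cytometry (live-gated geometric mean); IC50 by 4-parameter fit normalized to DMSO and positive control.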

Sequence of FLT3 (P36888 27-993): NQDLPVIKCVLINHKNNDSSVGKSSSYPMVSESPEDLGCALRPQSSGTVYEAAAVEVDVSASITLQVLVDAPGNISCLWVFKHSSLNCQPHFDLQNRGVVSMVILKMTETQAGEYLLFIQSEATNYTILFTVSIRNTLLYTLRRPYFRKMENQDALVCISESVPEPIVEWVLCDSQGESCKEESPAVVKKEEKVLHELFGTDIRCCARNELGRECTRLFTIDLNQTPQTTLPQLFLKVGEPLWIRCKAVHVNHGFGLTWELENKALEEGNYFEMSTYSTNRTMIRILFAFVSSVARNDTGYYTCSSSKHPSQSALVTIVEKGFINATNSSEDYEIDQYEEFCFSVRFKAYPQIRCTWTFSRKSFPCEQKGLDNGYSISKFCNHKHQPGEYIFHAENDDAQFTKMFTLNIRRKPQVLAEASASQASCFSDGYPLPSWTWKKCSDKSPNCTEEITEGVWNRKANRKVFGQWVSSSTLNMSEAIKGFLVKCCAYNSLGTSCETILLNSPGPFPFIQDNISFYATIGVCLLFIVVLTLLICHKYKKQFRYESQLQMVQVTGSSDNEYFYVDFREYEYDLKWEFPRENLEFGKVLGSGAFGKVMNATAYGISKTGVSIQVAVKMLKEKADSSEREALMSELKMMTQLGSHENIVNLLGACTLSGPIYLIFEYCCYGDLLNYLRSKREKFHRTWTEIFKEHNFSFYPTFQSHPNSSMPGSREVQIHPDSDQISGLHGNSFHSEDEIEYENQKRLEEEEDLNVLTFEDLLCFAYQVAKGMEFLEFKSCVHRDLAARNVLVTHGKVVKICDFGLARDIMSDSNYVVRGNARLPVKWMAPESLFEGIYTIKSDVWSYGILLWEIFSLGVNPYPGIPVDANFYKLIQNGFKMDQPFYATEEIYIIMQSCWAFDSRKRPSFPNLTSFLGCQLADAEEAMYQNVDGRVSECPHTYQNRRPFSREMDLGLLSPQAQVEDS

SMILES | IC50 (FLT3) [nM] | IC50 (c-Kit) [nM] | IC50 (PDGFRα) [nM] | IC50 (PDGFRβ) [nM] | IC50 (CSF1R) [nM] | IC50 [1] [nM]
Cc1cc(F)c(C(=O)Nc2ccn(C3CC3)n2)cc1NC(=O)c1cnc(N)s1 [Example 159, 2-Amino-N-[5-[(1-cyclopropylpyrazol-3-yl)carbamoyl]-4-fluoro-2-methylphenyl]-1,3-thiazole-5-carboxamide] | > 1000 | < 100 | > 1000 | > 1000 | > 1000 | < 100
Cc1cc(F)c(C(=O)Nc2ccc(O[C@H]3CCOC3)cn2)cc1NC(=O)c1cnc(N)s1 [Example 117, 2-Amino-N-[4-fluoro-2-methyl-5-[[5-[(3S)-oxolan-3-yl]oxypyridin-2-yl]carbamoyl]phenyl]-1,3-thiazole-5-carboxamide] | > 1000 | < 100 | > 1000 | > 1000 | > 1000 | < 100
CCc1ccc(NC(=O)c2cc(NC(=O)c3cnc(N)s3)c(C)cc2F)nc1 [Example 255, 2-Amino-N-[5-[(5-ethylpyridin-2-yl)carbamoyl]-4-fluoro-2-methylphenyl]-1,3-thiazole-5-carboxamide] | > 1000 | < 100 | 100 to 1000 | 100 to 1000 | 100 to 1000 | < 100
Cc1cc(F)c(C(=O)Nc2ccn(C3CC(F)(F)C3)n2)cc1NC(=O)c1cnc(N)s1 [Example 139, 2-Amino-N-[5-[[1-(3,3-difluorocyclobutyl)pyrazol-3-yl]carbamoyl]-4-fluoro-2-methylphenyl]-1,3-thiazole-5-carboxamide] | > 1000 | < 100 | 100 to 1000 | 100 to 1000 | > 1000 | < 100
Cc1ncc(C(=O)Nc2cc(C(=O)N[C@@H]3C[C@H]3c3ccccc3)c(F)cc2C)s1 [Example 31, N-[4-Fluoro-2-methyl-5-[[(1R,2S)-2-phenylcyclopropyl]carbamoyl]phenyl]-2-methyl-1,3-thiazole-5-carboxamide] | > 1000 | < 100 | > 1000 | > 1000 | > 1000 | < 100
Cc1cc(F)c(C(=O)N[C@H]2CCOC2)cc1NC(=O)c1cnc(N)s1 [Example 194, 2-Amino-N-[4-fluoro-2-methyl-5-[[(3S)-oxolan-3-yl]carbamoyl]phenyl]-1,3-thiazole-5-carboxamide] | > 1000 | < 100 | > 1000 | > 1000 | > 1000 | 100 to 1000
Cc1cc(F)c(C(=O)Nc2ccn(CC(C)C)n2)cc1NC(=O)c1cnc(N)s1 [Example 142, 2-Amino-N-[4-fluoro-2-methyl-5-[[1-(2-methylpropyl)pyrazol-3-yl]carbamoyl]phenyl]-1,3-thiazole-5-carboxamide] | > 1000 | < 100 | 100 to 1000 | 100 to 1000 | > 1000 | < 100
Cc1ncc(C(=O)Nc2cc(C(=O)Nc3ccc(C4CC4)nc3)c(F)cc2C)s1 [Example 24, N-[5-[(6-Cyclopropylpyridin-3-yl)carbamoyl]-4-fluoro-2-methylphenyl]-2-methyl-1,3-thiazole-5-carboxamide] | > 1000 | < 100 | – | – | > 1000 | < 100
Cc1cc(F)c(C(=O)NCC2(F)CC2)cc1NC(=O)c1cnc(N)s1 [Example 193, 2-Amino-N-[4-fluoro-5-[(1-fluorocyclopropyl)methylcarbamoyl]-2-methylphenyl]-1,3-thiazole-5-carboxamide] | > 1000 | < 100 | – | – | > 1000 | < 100
Cc1ncc(C(=O)Nc2cc(C(=O)Nc3cnc(CC4CC4)cn3)c(F)cc2C)s1 [Example 91, N-{5-[N-5-(cyclopropylmethyl)-2-pyrazinylcarbamoyl]-4-fluoro-2-tolyl}-2-methyl-1,3-thiazole-5-carboxamide] | > 1000 | < 100 | – | – | > 1000 | < 100
Cc1cc(F)c(C(=O)NCC2(F)CCC2)cc1NC(=O)c1cnc(NC(=O)N2CCC2)s1 [Example 104, 2-(Azetidine-1-carbonylamino)-N-[4-fluoro-5-[(1-fluorocyclobutyl)methylcarbamoyl]-2-methylphenyl]-1,3-thiazole-5-carboxamide] | > 1000 | < 100 | – | – | 100 to 1000 | < 100
COCCn1ccc(NC(=O)c2cc(NC(=O)c3cnc(N)s3)c(C)cc2F)n1 [Example 154, 2-Amino-N-[4-fluoro-5-[[1-(2-methoxyethyl)pyrazol-3-yl]carbamoyl]-2-methylphenyl]-1,3-thiazole-5-carboxamide] | > 1000 | < 100 | > 1000 | > 1000 | – | < 100
Cc1ncc(C(=O)Nc2cc(C(=O)Nc3cnc(OC4CC4)cn3)c(F)cc2C)s1 [Example 13, N-[5-[(5-Cyclopropyloxypyrazin-2-yl)carbamoyl]-4-fluoro-2-methylphenyl]-2-methyl-1,3-thiazole-5-carboxamide] | > 1000 | < 100 | – | – | > 1000 | < 100
Cc1cc(F)c(C(=O)Nc2ccn(-c3ccccn3)n2)cc1NC(=O)c1cnc(N)s1 [Example 168, 2-Amino-N-[4-fluoro-2-methyl-5-[(1-pyridin-2-ylpyrazol-3-yl)carbamoyl]phenyl]-1,3-thiazole-5-carboxamide] | > 1000 | < 100 | – | > 1000 | > 1000 | < 100
Cc1ncc(C(=O)Nc2cc(C(=O)Nc3cnc(OC(F)(F)F)cn3)c(F)cc2C)s1 [Example 87, N-[5-(N-5-trifluoromethoxy-2-pyrazinylcarbamoyl)-4-fluoro-2-tolyl]-2-methyl-1,3-thiazole-5-carboxamide] | > 1000 | < 100 | – | – | > 1000 | < 100
Cc1ncc(C(=O)Nc2cc(C(=O)Nc3ncc(C4CC4)cn3)c(F)cc2C)s1 [Example 44, NV-[5-[(5-cyclopropylpyrimidin-2-yl)carbamoyl]-4-fluoro-2-methylphenyl]-2-methyl-1,3-thiazole-5-carboxamide] | > 1000 | < 100 | > 1000 | > 1000 | > 1000 | –
Nc1ncc(C(=O)Nc2cc(C(=O)Nc3ccc(OC4CC4)cn3)c(F)cc2F)s1 [Example 222, 2-Amino-N-[5-[(5-cyclopropyloxypyridin-2-yl)carbamoyl]-2,4-difluorophenyl]-1,3-thiazole-5-carboxamide] | > 1000 | < 100 | > 1000 | > 1000 | – | < 100
